Patent US20200197439A1, “IMM[…] POLYOMAVIRUSES” (Atara Biotherapeutics, Inc., priority 2016, published 2020)

Legend:
CD8+ T cells = experiment: HLA restriction of mapped CD8+ BKV epitopes (ICS with peptide loaded HLA-matched and mismatched LCLs); format: cell-based, human; settings: CD8+ epitopes mapped in this study; T cells stimulated with peptide loaded HLA-matched and mismatched LCLs
Description: In order to characterize the T cell responses directed towards these antigens and precisely map the HLA class I and class II-restricted T cell responses, individual overlapping peptides (15 aa long overlapping by 10 aa) were sourced for LTA, STA and VP1 proteins for T cell epitope mapping. A two-dimensional peptide matrix was used to distribute all individual peptides into small overlapping peptide pools. The matrix is set up in the way that each peptide occurs once on the ordinate (FIG. 3). These peptide pools were used in ICS assays. After the ICS analysis, T cell response to the peptide pools was compared with the matrix to identify individual peptides. These individual peptides were further assessed for T cell expansion and ICS analysis to identify potential BK. Once the 15 mer peptide was identified, further mimimalization of the epitope sequence was carried out to identify the optimal T cell epitope sequence. The 15 mer peptide sequences were trimmed from both N- and C-terminus to a minimal of 9 aa long peptides. Once the minimal peptide sequence was identified, further confirmation was carried out using limiting dose titration ICS assay. After mapping minimal epitope sequence, the HLA restriction of the epitope was identified by stimulating T cells using peptide loaded HLA-matched and mismatched LCLs. […]

CD4+ T cells = experiment: HLA restriction of mapped CD4+ BKV epitopes (ICS with peptide loaded HLA-matched and mismatched LCLs); format: cell-based, human; settings: CD4+ epitopes mapped in this study; T cells stimulated with peptide loaded HLA-matched and mismatched LCLs
Description: In order to characterize the T cell responses directed towards these antigens and precisely map the HLA class I and class II-restricted T cell responses, individual overlapping peptides (15 aa long overlapping by 10 aa) were sourced for LTA, STA and VP1 proteins for T cell epitope mapping. A two-dimensional peptide matrix was used to distribute all individual peptides into small overlapping peptide pools. The matrix is set up in the way that each peptide occurs once on the ordinate (FIG. 3). These peptide pools were used in ICS assays. After the ICS analysis, T cell response to the peptide pools was compared with the matrix to identify individual peptides. These individual peptides were further assessed for T cell expansion and ICS analysis to identify potential BK. Once the 15 mer peptide was identified, further mimimalization of the epitope sequence was carried out to identify the optimal T cell epitope sequence. The 15 mer peptide sequences were trimmed from both N- and C-terminus to a minimal of 9 aa long peptides. Once the minimal peptide sequence was identified, further confirmation was carried out using limiting dose titration ICS assay. After mapping minimal epitope sequence, the HLA restriction of the epitope was identified by stimulating T cells using peptide loaded HLA-matched and mismatched LCLs.
In order to map the T cell epitope further analysis was carried out using sub pools of STA peptides (12 pools) designed based on the two dimensional matrix shown in FIG. 3. […] Similar epitope mapping process was carried out for other CD4^+ and CD8^+ T cell epitopes.

| Sequence | HLA Restriction (CD8+ T cells) | HLA Restriction (CD4+ T cells) |
| --- | --- | --- |
| VKNPYPISFLL (BK polyomavirus) | Cw*07 |  |
| WDEDLFCHEDMFASD [JCV variant […]] |  | DQB5*01 |
| GGDEDKMKRMNTLYK [JCV variant […]] |  | DRB1*13 |
| GTQQWRGLARYFKIR [JCV variant […]] |  | DRB1*11/8 |
| RGLARYFKIRLRKRS [JCV variant […]] |  | DRB1*11 |
| FNVPKRRYWLFKGPI [JCV variant […]] |  | DRB1*15 |
| KMKRMNTLYKKMEQD [JCV variant […]] |  | DRB1*13 |
| RKAYLRKCKEFHPDK [JCV variant […]] |  | DRB1*13 |
| CFTQWFGLDLTEETL [JCV variant […]] |  | DRB1*03/04 |
| RRYWLFKGPIDSGKT [JCV variant […]] |  | DRB1*15 |
